From US12209079B2 (GENERAL INCORPORATED ASSOCIATION PHARMA VALLEY PROJECT …, priority 2017, dated 2025)
Counter-ions that a name gives are not always drawn.

What was measured:
[1] = target: rhTDO (recombinant human TDO) (Homo sapiens, UniProt P48775); assay: Enzyme assay using rhTDO (rate of kynurenine production); format: biochemical; conditions: 2 h; final concentration of the compound 10 μM; rate relative to reaction without compound; read-out: rhTDO-mediated kynurenine production
In short: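 Kynurenine output, as percent of untreated control after background subtraction, read at 490 nm with p-dimethylbenzaldehyde following TCA quench and 15 min heating at 50 °C. Reaction: rhTDO with compound, 10 min preincubation then 120 min at 37 °C, started by 20 mM tryptophan stock, in phosphate/ascorbate/methylene blue/catalase.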

[2] = target: rhIDO (recombinant human IDO) (Homo sapiens, UniProt P14902); assay: Enzyme assay using rhIDO (rate of kynurenine production); format: biochemical; conditions: 2 h; final concentration of the compound 10 μM; rate relative to reaction without compound; read-out: rhIDO-mediated kynurenine production
Chain of rhIDO (recombinant human IDO) (P14902 whole entry): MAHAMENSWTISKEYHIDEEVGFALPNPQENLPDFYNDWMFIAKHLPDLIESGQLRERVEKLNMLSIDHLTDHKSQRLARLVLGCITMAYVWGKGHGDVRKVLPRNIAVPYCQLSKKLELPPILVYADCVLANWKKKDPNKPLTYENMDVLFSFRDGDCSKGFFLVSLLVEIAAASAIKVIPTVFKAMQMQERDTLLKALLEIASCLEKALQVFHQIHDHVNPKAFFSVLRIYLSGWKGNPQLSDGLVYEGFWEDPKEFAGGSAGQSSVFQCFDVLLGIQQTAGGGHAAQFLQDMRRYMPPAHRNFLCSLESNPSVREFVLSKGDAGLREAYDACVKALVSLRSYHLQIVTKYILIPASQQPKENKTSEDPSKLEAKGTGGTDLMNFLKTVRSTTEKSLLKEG
In short: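 rhIDO preincubated with compound 10 min at 37 °C in phosphate buffer with ascorbate, methylene blue and catalase; started with 2 mM tryptophan solution (stock) and run 120 min at 37 °C. Stopped with TCA and heated to convert N-formylkynurenine; kynurenine read at 490 nm after p-dimethylbenzaldehyde, background-subtracted, as % of no-compound control.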

TDO in A172 cells = target: T1, TDO in A172 cells (Homo sapiens, UniProt P48775); assay: TDO cell-based assay, kynurenine production in A172 cells; conditions: A 172; final concentration of the compound 10 μM; rate relative to culture without compound
T1 construct: endogenous in cells; host or cells: A172 cells
T1 sequence (P48775 whole entry): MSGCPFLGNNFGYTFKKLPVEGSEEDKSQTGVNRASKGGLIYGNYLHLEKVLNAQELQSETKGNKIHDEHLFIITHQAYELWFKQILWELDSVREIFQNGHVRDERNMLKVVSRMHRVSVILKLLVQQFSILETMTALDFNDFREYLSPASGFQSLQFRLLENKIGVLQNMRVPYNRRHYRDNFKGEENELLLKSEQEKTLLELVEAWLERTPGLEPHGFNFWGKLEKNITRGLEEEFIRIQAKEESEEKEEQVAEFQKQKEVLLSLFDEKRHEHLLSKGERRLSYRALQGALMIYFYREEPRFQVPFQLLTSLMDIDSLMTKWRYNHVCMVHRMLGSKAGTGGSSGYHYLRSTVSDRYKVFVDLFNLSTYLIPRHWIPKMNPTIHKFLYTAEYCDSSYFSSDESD
In short: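 A172 cells were preincubated with compound for 1 h, then given L-tryptophan (final 524 μM) for 24 h at 37 °C. Kynurenine was read at 460 nm after p-dimethylbenzaldehyde/TCA reagent, background-subtracted, and expressed as % of no-compound production.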

IDO in A431 cells = target: T2, IDO in A431 cells (Homo sapiens, UniProt P14902); assay: IDO cell-based assay, kynurenine production in IFN-γ stimulated A431 cells; conditions: A-431, 24 h; final concentration of the compound 10 μM; rate relative to culture without compound
T2 construct: endogenous in cells; host or cells: A431 cells, IFN-γ stimulated
T2 sequence (P14902 whole entry): as the sequence (P14902 whole entry) above
In short: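 A431 cells were cultured 24 h, then preincubated 1 h with compound in medium containing 178 μM L-tryptophan, and stimulated with IFN-γ (diluted to 100 ng/mL before addition) for 24 h. Kynurenine was measured by p-dimethylbenzaldehyde absorbance at 460 nm, background-subtracted, and expressed as % production versus no-compound control.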

Chain of rhTDO (recombinant human TDO) (P48775 whole entry): as the sequence (P48775 whole entry) above

Structure (SMILES) | remaining activity at 10 µM [1] | remaining activity at 10 µM [2] | remaining activity at 10 µM (TDO in A172 cells) | remaining activity at 10 µM (IDO in A431 cells)
Cc1ccc(CNC(=O)c2ccc(Br)cc2CSC(=N)N)cc1 [Compound 90, 5-Bromo-2-((4-methylbenzyl)carbamoyl)benzyl carbamimidothioate hydrobromide] | 45% | 90% | 51% | 96%
Cc1ccc(C)c(CN2CN=C(SCc3ccccc3CSC3=NCN(Cc4cc(C)ccc4C)CN3)NC2)c1 [Compound 44, 1,2-Bis(((5-(2,5-dimethylbenzyl)-1,4,5,6-tetrahydro-1,3,5-triazin-2-yl)thio)methyl)benzene] | 26% | 50% | 1% | 11%
N=C(N)SCc1ccc(Br)cc1C(=O)NCc1ccc(Br)cc1 [Compound 117, 4-Bromo-2-((4-bromobenzyl)carbamoyl)benzyl carbamimidothioate hydrobromide] | 9% | 2% | 31% | 7%
N/C(=N\c1ccc(F)cc1F)SCc1ccc(F)cc1CS/C(N)=N/c1ccc(F)cc1F [Compound 130, (4-Fluoro-1,2-phenylene)bis(methylene) (E,E)-bis(N′-(2,4-difluorophenyl)carbamimidothioate) dihydrobromide] | 8% | 1% | 9% | 1%
FC(F)(F)c1ccc(CCN2CN=C(SCc3ccccc3CSC3=NCN(CCc4ccc(C(F)(F)F)cc4)CN3)NC2)cc1 [Compound 142, 1,2-Bis (((5-(4-(Trifluoromethyl)phenethyl)-1,4,5,6-tetrahydro-1,3,5-triazin-2-yl)thio)methyl)benzene] | 18% | 43% | 6% | 16%
N=C(N)SCc1cc(Br)ccc1C(=O)NCC1CCCCC1 [Compound 74, 5-Bromo-2-((cyclohexylmethyl)carbamoyl)benzyl carbamimidothioate hydrobromide] | 29% | 70% | 47% | 75%
N=C(N)SCc1cc(F)c(F)cc1CSC(=N)N [Compound 131, (4,5-Difluoro-1,2-phenylene)bis(methylene) dicarbamimidothioate dihydrobromide] | 3% | 7% | 6% | 5%
Cc1ccc(CNC(=O)c2ccc(Br)cc2CS/C(N)=N/c2ccc(F)c(Cl)c2)cc1 [Compound 91, 5-Bromo-2-((4-methylbenzyl)carbamoyl)benzyl (E)-N′-(3-chloro-4-fluorophenyl)carbamimidothioate hydrobromide] | 103% | 78% | 26% | 51%
COc1cccc(CNC(=O)c2ccc(Br)cc2CSC(=N)N)c1 [Compound 105, 5-Bromo-2-((3-methoxybenzyl)carbamoyl)benzyl carbamimidothioate hydrobromide] | 68% | 98% | 42% | 107%
N=C(N)SCc1c(F)c(F)c(F)c(F)c1CSC(=N)N [Compound 6, (perfluoro-1,2-phenylene)bis(methylene) dicarbamimidothioate dihydrobromide] | 9% | 15% | 74% | 75%
COc1cccc(CCN2CN=C(SCc3cc(Cl)c(Cl)cc3CSC3=NCN(CCc4cccc(OC)c4)CN3)NC2)c1 [Compound 153, 6,6′-(((4,5-Dichloro-1,2-phenylene)bis(methylene))bis(sulfanediyl))bis(3-(3-methoxyphenethyl)-1,2,3,4-tetrahydro-1,3,5-triazine)] | 6% | 8% | 9% | 12%
N=C(N)SCc1cc(Br)ccc1C(=O)NCc1ccc(F)c(Cl)c1 [Compound 116, 5-Bromo-2-((3-chloro-4-fluorobenzyl)carbamoyl)benzyl carbamimidothioate hydrobromide] | 21% | 85% | 55% | 92%
N/C(=N\c1ccc(F)c(Cl)c1)SCc1ccccc1CS/C(N)=N/c1ccc(F)c(Cl)c1 [Compound 122, 1,2-Phenylenebis(methylene) (E,E)-bis(N-(3-chloro-4-fluorophenyl)carbamimidothioate) dihydrobromide] | 8% | -3% | 7% | 2%
COCCNC(=O)c1ccc(Br)cc1CSC(=N)N [Compound 115, 5-Bromo-2-((2-methoxyethyl)carbamoyl)benzyl carbamimidothioate hydrobromide] | 63% | 91% | 71% | 121%
N/C(=N\c1cccc(Cl)c1)SCc1cc(Cl)c(Cl)cc1CS/C(N)=N/c1cccc(Cl)c1 [Compound 125, (4,5-Dichloro-1,2-phenylene)bis(methylene) (E,E)-bis(N′-(3-chlorophenyl)carbamimidothioate) dihydrobromide] | 7% | -2% | 3% | 11%
CNC(=N)SCc1ccccc1CSC(=N)NC [Compound 11, 1,2-phenylenebis(methylene) bis(methylcarbamimidothioate) dihydrochloride] | 58% | 51% | 19% | 6%
N/C(=N\c1ccc(F)c(Cl)c1)SCc1cc(Br)ccc1C(=O)NCc1ccc(Cl)cc1 [Compound 83, 5-Bromo-2-((4-chlorobenzyl)carbamoyl)benzyl (E)-N′-(3-chloro-4-fluorophenyl)carbamimidothioate hydrobromide] | 59% | 80% | 21% | 75%
COc1ccc(CNC(=O)c2ccc(Br)cc2CSC(=N)N)cc1 [Compound 102, 5-Bromo-2-((4-methoxybenzyl)carbamoyl)benzyl carbamimidothioate hydrobromide] | 58% | 97% | 38% | 112%
N#Cc1ccc(CNC(=O)c2ccc(Br)cc2CS/C(N)=N/c2ccc(Br)cc2)cc1 [Compound 87, 5-Bromo-2-((4-cyanobenzyl)carbamoyl)benzyl (E)-N′-(4-bromophenyl)carbamimidothioate hydrobromide] | 51% | 75% | 13% | 67%
Fc1ccc(CN2CN=C(SCc3ccccc3CSC3=NCN(Cc4ccc(F)c(F)c4)CN3)NC2)cc1F [Compound 43, 1,2-Bis(((5-(3,4-difluorobenzyl)-1,4,5,6-tetrahydro-1,3,5-triazin-2-yl)thio)methyl)benzene] | 41% | 71% | -2% | 11%
N#Cc1ccc(CNC(=O)c2cc(Br)ccc2CS/C(N)=N/c2ccc(Br)cc2)cc1 [Compound 119, 4-Bromo-2-((4-cyanobenzyl)carbamoyl)benzyl (E)-N′-(4-bromophenyl)carbamimidothioate hydrobromide] | 50% | 25% | 12% | 4%
N=C(N)SCc1cc(Br)ccc1C(=O)NCc1ccc(C(F)(F)F)cc1 [Compound 114, 5-Bromo-2-((4-(trifluoromethyl)benzyl)carbamoyl)benzyl carbamimidothioate hydrobromide] | 36% | 98% | 37% | 17%
CNC(=O)c1ccc(C#N)cc1CS/C(N)=N/c1ccc(Br)cc1 [Compound 81, 5-Cyano-2-(methylcarbamoyl)benzyl (E)-N′-(4-bromophenyl)carbamimidothioate hydrobromide] | 121% | 81% | 89% | 78%
COC(=O)c1c(CSC(=N)N)[nH]c2ccccc12 [Compound 32, Methyl 2-((carbamimidoylthio)methyl)-1H-indole-3-carboxylate hydrobromide] | 51% | 59% | 52% | 54%
